Reference: US20060069132A1, “Azolecarboxamide herbicides” (priority 2004, published 2006)

How the values were obtained:
rice [1] = test: Test B pre-/postemergence herbicide test; type: in vivo, Oryza sativa; conditions: preemergence, 125 g ai/ha; 0 to 100 scale, 0 is no effect, 100 is complete control
In short: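 Plants compared with untreated controls 13–15 days post-treatment and given a visual 0–100 injury score. Applications: preemergence to seeds; postemergence at 1- to 4-leaf (2–18 cm); paddy species flooded, 2-leaf stage. Vehicle non-phytotoxic, surfactant included.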

giant foxtail = test: Test B pre-/postemergence herbicide test; type: in vivo, Setaria faberi
In short: (§1)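 Evaluation is visual, comparing treated with control plants on a scale where 0 means no effect and 100 means full control. Treatments were preemergence, or postemergence on seedlings 2–18 cm tall, and held 13–15 days in the greenhouse.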

wild oat = test: Test B postemergence herbicide test; type: in vivo, Avena fatua; conditions: scale 0 (no effect) to 100 (complete control)
In short: (§2)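 After treating 2-leaf paddy plants or 2–18 cm postemergence plants (1 to 4 leaves) with formulated chemical, researchers kept them in a greenhouse for 13–15 days. Effects were judged visually versus controls: 0 indicates none, 100 total control.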

rice [2] = test: Test C flooded paddy test; type: in vivo, Oryza sativa
In short: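 Postemergence sprays applied to plants 2 to 18 cm tall (1- to 4-leaf stage); paddy species grown to 2-leaf stage under flooding. After 12 to 14 days in greenhouse, visual rating versus untreated controls on 0–100 scale (0 no effect, 100 complete control).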

large crabgrass = test: Test B pre-/postemergence herbicide test; type: in vivo, Digitaria sanguinalis
In short: as §1

cocklebur = test: Test B pre-/postemergence herbicide test; type: in vivo, Xanthium strumarium
In short: (§3)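 Visual rating, 0 (no effect) to 100 (complete control), versus untreated controls after 13–15 d in greenhouse. Pre- and postemergence applications (postemergence plants 2–18 cm, 1–4 leaves); flooded paddy arm at 2-leaf stage. Compounds in non-phytotoxic solvent plus surfactant.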

ducksalad [3] = test: Test C flooded paddy test; type: in vivo, Heteranthera limosa
morningglory = test: Test B pre-/postemergence herbicide test; type: in vivo, Ipomoea coccinea
In short: as §3

ducksalad [4] = test: Test B flooded paddy test; type: in vivo, Heteranthera limosa; conditions: 1000 g ai/ha, visual rating, scale 0 to 100 (0 no effect, 100 complete control), 13 to 15 days
In short: (§4)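 Visual ratings, 0 (no effect) to 100 (complete control), made versus controls after 13–15 d greenhouse. Paddy plants treated at 2-leaf stage; postemergence plants at 1- to 4-leaf stage, 2–18 cm tall.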

[5] = tested on: small flower umbrella sedge; test: Test B flooded paddy test; type: in vivo, Cyperus difformis; conditions: 1000 g ai/ha, visual rating, scale 0 to 100 (0 no effect, 100 complete control), 13 to 15 days
In short: as §4

rice [6] = test: Test B flooded paddy test; type: in vivo, Oryza sativa; conditions: 1000 g ai/ha, visual rating, scale 0 to 100 (0 no effect, 100 complete control), 13 to 15 days
In short: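 Each value is a visual 0–100 response rating taken against controls 13 to 15 days after treatment in the greenhouse. Plants received formulated chemical postemergence at the 1- to 4-leaf stage or, in flooded paddy, at the 2-leaf stage.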

barnyardgrass [7] = test: Test B flooded paddy test; type: in vivo, Echinochloa crus-galli; conditions: 1000 g ai/ha, visual rating, scale 0 to 100 (0 no effect, 100 complete control), 13 to 15 days
In short: as §4

Surinam grass = test: Test B pre-/postemergence herbicide test; type: in vivo, Urochloa decumbens
In short: as §1

corn = test: Test B pre-/postemergence herbicide test; type: in vivo, Zea mays
In short: as §1

barnyardgrass [8] = test: Test B pre-/postemergence herbicide test; type: in vivo, Echinochloa crus-galli
In short: as §3

lambsquarters = test: Test B pre-/postemergence herbicide test; type: in vivo, Chenopodium album
In short: as §1

wheat = test: Test B postemergence herbicide test; type: in vivo, Triticum aestivum; design: key to Wheat plant response rating: 0 = no effect, 100 = complete control; conditions: scale 0 (no effect) to 100 (complete control)
In short: as §2

pigweed = test: Test B pre-/postemergence herbicide test; type: in vivo, Amaranthus retroflexus
In short: as §1

[9] = tested on: smallflower umbrella sedge; test: Test C flooded paddy test; type: in vivo, Cyperus difformis
barnyardgrass [10] = test: Test C flooded paddy test; type: in vivo, Echinochloa crus-galli
In short: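 Weeds and wheat were sprayed after emergence, at a height of 2 to 18 cm (1–4 leaves), and paddy barnyardgrass was flooded and treated at two leaves. Assessment took place 12–14 days later in the greenhouse on a 0-to-100 visual control scale. A dash means no result was obtained.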

velvetleaf = test: Test B pre-/postemergence herbicide test; type: in vivo, Abutilon theophrasti
In short: as §1

blackgrass = test: Test B postemergence herbicide test; type: in vivo, Alopecurus myosuroides; conditions: scale 0 (no effect) to 100 (complete control)
In short: as §4

[11] = Postemergence, 500 g ai/ha, visual rating after 13 to 15 days, scale 0 (no effect) to 100 (complete control)
[12] = Preemergence, 500 g ai/ha, scale 0 to 100
[13] = postemergence, 125 g ai/ha, visual rating, scale 0 (no effect) to 100 (complete control)
[14] = preemergence, 125 g ai/ha, 0 to 100 scale, 0 is no effect, 100 is complete control
[15] = Postemergence, 500 g ai/ha, visual rating after 13 to 15 days
[16] = postemergence, 125 g ai/ha, visual rating
[17] = 62 g ai/ha, scale 0 to 100 (0 no effect, 100 complete control)
[18] = 125 g ai/ha, scale of 0 to 100, 0 is no effect, 100 is complete control
[19] = 250 g ai/ha, scale of 0 to 100, 0 is no effect, 100 is complete control
[20] = 500 g ai/ha, visual rating after 12 to 14 days, scale 0 to 100 (0 no effect, 100 complete control)

Compound: CCn1nc(C(C)(C)C)cc1C(=O)Nc1cc(C(=O)OC)c(OC)cc1F [Compound 75]
- Plant response rating, Rice (rice [1]): 40
- Plant response rating, Foxtail, Giant (giant foxtail; [11]): 20
- Foxtail, Giant plant response rating (giant foxtail; [12]): 90
- Foxtail, Giant plant response rating (giant foxtail; [13]): 20
- Plant response rating, Foxtail, Giant (giant foxtail; [14]): 30
- Plant response rating, Oat, Wild (wild oat; [15]): 40
- Oat, Wild plant response rating (wild oat; [16]): 10
- Rice plant response rating (rice [2]; [17]): 0
- Rice plant response rating (rice [2]; [18]): 25
- Rice plant response rating (rice [2]; [19]): 55
- Plant response rating, Rice (rice [2]; [20]): 65
- Plant response rating, Crabgrass, Large (large crabgrass; [11]): 10
- Crabgrass, Large plant response rating (large crabgrass; [12]): 70
- Crabgrass, Large plant response rating (large crabgrass; [13]): 10
- Plant response rating, Crabgrass, Large (large crabgrass; [14]): 10
- Plant response rating, Cocklebur (cocklebur; [11]): 30
- Cocklebur plant response rating (cocklebur; [12]): 10
- Cocklebur plant response rating (cocklebur; [13]): 10
- Plant response rating, Cocklebur (cocklebur; [14]): 0
- Ducksalad plant response rating (ducksalad [3]; [17]): 0
- Ducksalad plant response rating (ducksalad [3]; [18]): 30
- Ducksalad plant response rating (ducksalad [3]; [19]): 65
- Plant response rating, Ducksalad (ducksalad [3]; [20]): 70
- Plant response rating, Morningglory (morningglory; [11]): 50
- Morningglory plant response rating (morningglory; [13]): 20
- Plant response rating, Morningglory (morningglory; [14]): 0
- Ducksalad plant response rating (ducksalad [4]): 90
- Sedge, Umbrella plant response rating [5]: 70
- Rice plant response rating (rice [6]): 90
- Barnyardgrass plant response rating (barnyardgrass [7]): 80
- Plant response rating, Surinam Grass (Surinam grass; [11]): 20
- Surinam Grass plant response rating (Surinam grass; [13]): 10
- Plant response rating, Surinam Grass (Surinam grass; [14]): 30
- Plant response rating, Corn (corn; [11]): 20
- Corn plant response rating (corn; [12]): 30
- Corn plant response rating (corn; [13]): 10
- Plant response rating, Corn (corn; [14]): 0
- Plant response rating, Barnyardgrass (barnyardgrass [8]; [11]): 20
- Barnyardgrass plant response rating (barnyardgrass [8]; [12]): 90
- Barnyardgrass plant response rating (barnyardgrass [8]; [13]): 10
- Plant response rating, Barnyardgrass (barnyardgrass [8]; [14]): 50
- Plant response rating, Lambsquarters (lambsquarters; [11]): 40
- Lambsquarters plant response rating (lambsquarters; [13]): 40
- Plant response rating, Lambsquarters (lambsquarters; [14]): 20
- Plant response rating, Wheat (wheat; [15]): 20
- Wheat plant response rating (wheat; [16]): 10
- Plant response rating, Pigweed (pigweed; [11]): 70
- Pigweed plant response rating (pigweed; [13]): 50
- Plant response rating, Pigweed (pigweed; [14]): 50
- Sedge, Umbrella plant response rating [9, 17]: 70
- Sedge, Umbrella plant response rating [9, 18]: 75
- Sedge, Umbrella plant response rating [9, 19]: 80
- Plant response rating, Sedge, Umbrella [9, 20]: 85
- Barnyardgrass plant response rating (barnyardgrass [10]; [17]): 0
- Barnyardgrass plant response rating (barnyardgrass [10]; [18]): 25
- Barnyardgrass plant response rating (barnyardgrass [10]; [19]): 65
- Plant response rating, Barnyardgrass (barnyardgrass [10]; [20]): 70
- Plant response rating, Velvetleaf (velvetleaf; [11]): 20
- Velvetleaf plant response rating (velvetleaf; [13]): 20
- Plant response rating, Velvetleaf (velvetleaf; [14]): 20
- Plant response rating, Blackgrass (blackgrass; [15]): 30
- Blackgrass plant response rating (blackgrass; [16]): 10
